Values of other authors as cited in PMC9885524 (Journal of natural products, 2023).

System: live SARS-CoV-2
Conditions: read-out: half-maximal effective concentrations against live SARS-CoV-2 in vitro; depending on the SARS-CoV-2 variant

For `Oc1ccc([C@@H]2c3c(O)cc(O)cc3[C@@H]3c4c(cc(O)cc4[C@H]2[C@@H]2c4cc(O)cc5c4[C@@H](c4cc(O)cc(O)c4[C@H]2c2ccc(O)cc2)[C@H](c2ccc(O)cc2)O5)O[C@H]3c2ccc(O)cc2)cc1` [(−)-hopeaphenol, (−)-Hopeaphenol], which EC50 is on record?
The EC50 was 7.5 to 23 µM.
